Reference: the supplement of paper PMC10307832

Legend:
Experiment in all cases: relative viability (nuclei count vs DMSO), 5 days (fraction); higher = more cells survive
[1] = compound: CC(O)(CS(=O)(=O)c1ccc(F)cc1)C(=O)Nc1ccc(C#N)c(C(F)(F)F)c1 [Bicalutamide] + Nc1nc2[nH]cc(CCc3ccc(C(=O)N[C@@H](CCC(=O)O)C(=O)O)cc3)c2c(=O)[nH]1 [Pemetrexed] (partner 0.2 µM)
Procedure, shortened: (§1)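 Relative viability equals treated-well nuclei counts divided by vehicle-well nuclei counts. Counts came from 4× images of lung cancer cell lines grown in 1536-well plates for 5 days after pin-tool dosing on the day after seeding. Dosing used one drug alone or a fixed anchor-drug dose plus five library-drug doses (not always all listed) in √10 steps, and values are medians of duplicate plates.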

[2] = compound: CC(O)(CS(=O)(=O)c1ccc(F)cc1)C(=O)Nc1ccc(C#N)c(C(F)(F)F)c1 [Bicalutamide] + CC(=O)Nc1cccc(-n2c(=O)n(C3CC3)c(=O)c3c(Nc4ccc(I)cc4F)n(C)c(=O)c(C)c32)c1 [Trametinib] (partner 0.02 µM)
Procedure, shortened: as §1

Bicalutamide + Foretinib = compound: CC(O)(CS(=O)(=O)c1ccc(F)cc1)C(=O)Nc1ccc(C#N)c(C(F)(F)F)c1 [Bicalutamide] + COc1cc2c(Oc3ccc(NC(=O)C4(C(=O)Nc5ccc(F)cc5)CC4)cc3F)ccnc2cc1OCCCN1CCOCC1 [Foretinib] (partner 0.25 µM)
Procedure, shortened: as §1

[3] = compound: C(C(=O)C(=O)O)Br [Bromopyruvate] + Nc1nc2[nH]cc(CCc3ccc(C(=O)N[C@@H](CCC(=O)O)C(=O)O)cc3)c2c(=O)[nH]1 [Pemetrexed] (partner 0.2 µM)
Procedure, shortened: as §1

## EPLC-272H
[1]; first compound 0.08 µM
  relative viability: 0.424
[1]; first compound 0.253 µM
  relative viability: 0.322
[1]; first compound 0.8 µM
  relative viability: 0.359
[1]; first compound 2.53 µM
  relative viability: 0.207
[2]; first compound 0.08 µM
  relative viability: 0.315
[2]; first compound 0.253 µM
  relative viability: 0.281
[2]; first compound 0.8 µM
  relative viability: 0.332
[2]; first compound 2.53 µM
  relative viability: 0.281
Bicalutamide + Foretinib; first compound 0.08 µM
  relative viability: 0.606
Bicalutamide + Foretinib; first compound 0.253 µM
  relative viability: 0.841
Bicalutamide + Foretinib; first compound 0.8 µM
  relative viability: 0.817
Bicalutamide + Foretinib; first compound 2.53 µM
  relative viability: 0.679
[3]; first compound 1 µM
  relative viability: 0.367
[3]; first compound 3.162 µM
  relative viability: 0.259
[3]; first compound 10 µM
  relative viability: 0.334
[3]; first compound 31.62 µM
  relative viability: 0.251
[3]; first compound 100 µM
  relative viability: 0.432

## NCI-H1395
[1]; first compound 0.08 µM
  relative viability: 0.89
[1]; first compound 0.253 µM
  relative viability: 0.766
[1]; first compound 0.8 µM
  relative viability: 0.965
[1]; first compound 2.53 µM
  relative viability: 0.709
[2]; first compound 0.08 µM
  relative viability: 0.986
[2]; first compound 0.253 µM
  relative viability: 1.04
[2]; first compound 0.8 µM
  relative viability: 1.12
[2]; first compound 2.53 µM
  relative viability: 0.948
Bicalutamide + Foretinib; first compound 0.08 µM
  relative viability: 0.938
Bicalutamide + Foretinib; first compound 0.253 µM
  relative viability: 0.94
Bicalutamide + Foretinib; first compound 0.8 µM
  relative viability: 1.23
Bicalutamide + Foretinib; first compound 2.53 µM
  relative viability: 0.874
[3]; first compound 1 µM
  relative viability: 0.978
[3]; first compound 3.162 µM
  relative viability: 0.917
[3]; first compound 10 µM
  relative viability: 0.884
[3]; first compound 31.62 µM
  relative viability: 0.847
[3]; first compound 100 µM
  relative viability: 0.928

## NCI-H2228
[1]; first compound 0.08 µM
  relative viability: 0.343
[1]; first compound 0.253 µM
  relative viability: 0.351
[1]; first compound 0.8 µM
  relative viability: 0.334
[1]; first compound 2.53 µM
  relative viability: 0.323
[2]; first compound 0.08 µM
  relative viability: 0.39
[2]; first compound 0.253 µM
  relative viability: 0.54
[2]; first compound 0.8 µM
  relative viability: 0.616
[2]; first compound 2.53 µM
  relative viability: 0.34
Bicalutamide + Foretinib; first compound 0.08 µM
  relative viability: 0.933
Bicalutamide + Foretinib; first compound 0.253 µM
  relative viability: 0.843
Bicalutamide + Foretinib; first compound 0.8 µM
  relative viability: 1
Bicalutamide + Foretinib; first compound 2.53 µM
  relative viability: 1.02
[3]; first compound 1 µM
  relative viability: 0.343
[3]; first compound 3.162 µM
  relative viability: 0.339
[3]; first compound 10 µM
  relative viability: 0.337
[3]; first compound 31.62 µM
  relative viability: 0.357
[3]; first compound 100 µM
  relative viability: 0.341

## LXF-289
[1]; first compound 0.08 µM
  relative viability: 0.929
[1]; first compound 0.253 µM
  relative viability: 0.815
[1]; first compound 0.8 µM
  relative viability: 0.916
[1]; first compound 2.53 µM
  relative viability: 0.949
[2]; first compound 0.08 µM
  relative viability: 0.667
[2]; first compound 0.253 µM
  relative viability: 0.636
[2]; first compound 0.8 µM
  relative viability: 0.734
[2]; first compound 2.53 µM
  relative viability: 0.656
Bicalutamide + Foretinib; first compound 0.08 µM
  relative viability: 0.955
Bicalutamide + Foretinib; first compound 0.253 µM
  relative viability: 0.91
Bicalutamide + Foretinib; first compound 0.8 µM
  relative viability: 0.939
Bicalutamide + Foretinib; first compound 2.53 µM
  relative viability: 0.985
[3]; first compound 1 µM
  relative viability: 0.874
[3]; first compound 3.162 µM
  relative viability: 0.92
[3]; first compound 10 µM
  relative viability: 0.899
[3]; first compound 31.62 µM
  relative viability: 0.958
[3]; first compound 100 µM
  relative viability: 0.941
